Assay results reported in US20260265199A1, “CRYSTALLINE FORMS OF (R)-2-AMINO-5-(4-(2-(3,5-DIFLUOROPHENYL)-2-HYDROXYACETAMIDO)-2-METHYLPHENYL)-N-ISOPROPYLNICOTINAMIDE AND METHODS FOR USING THE SAME” (HIBERCELL, INC., priority 2023, published 2026).
Structures can show the parent of a compound that is named as a salt.

Experiment: Phase 1a study: pharmacokinetics after oral BID dosing in subjects with advanced solid tumors
Format: in vivo, human
Parameters: Increase in mean: scale not given here
Experimental: This example describes a first in human, Phase 1a, multi-center, open-label study to establish the maximum tolerated dose (MTD) and evaluate the safety and tolerability of oral dosing of Form A of the hemi-fumarate salt of the compound of formula (I) (Example 11) in a dose-escalating fashion. Form A of the hemi-fumarate salt was orally administered BID every day with food or within 30 minutes of completing a meal, starting at 25 mg, with doses escalating to 50, 100, 200, 400, 600, and 900 mg BID as safety allows for each 3-week treatment cycle.
Up to 36 qualified subjects at 3 to 5 US sites, who have specific tumor types of renal cell carcinoma (RCC), gastric cancer (GC), metastatic breast cancer (MBC), small cell lung cancer (SCLC), and other solid tumors (e.g., non-small cell lung cancer, colorectal cancer, carcinoma of unknown primary) with the exception of rapidly progressing neoplasms (e.g., pancreatic cancer, glioblastoma, hepatocellular carcinoma) received Form A of the hemi-fumarate salt. Every effort was made to ensure approximately 50% of all subjects enrolled were subjects with RCC and GC. The starting dose level was 25 mg twice daily (BID), escalating to 50, 100, and 200 mg BID as safety allows, following the Bayesian Optimal Interval (BOIN) design. The safety monitoring committee (SMC) evaluated the dose-limiting toxicities (DLTs) and cumulative safety and PK data at the end of each cohort. Based on the SMC recommendations after a comprehensive review of PK and safety data for 200 mg BID dose, higher dose levels were evaluated, starting with 400 mg BID. The dose escalated to 600 mg and then 900 mg following the BOIN design starting with 1 subject at each escalated dose, until the MTD was reached or the sponsor or SMC declares the dose most appropriate for clinical development. This Phase 1a will be expanded into a Phase 1b/2a study through a protocol amendment and will then assess the dose and tumor type(s) selected in Phase 1a as the most appropriate for further clinical development. Subjects were dosed until unacceptable toxicity, disease progression per immune-related Response Evaluation Criteria in Solid Tumors (iRECIST), subject withdrawal, any other administrative reasons, or after 2 years of treatment, whichever occurs first. Efficacy was assessed via Response Evaluation Criteria in Solid Tumors 1.1 (RECIST 1.1); computed tomography (CT) scans were conducted every 6 weeks. Safety, including occurrence of dose-limiting toxicities (DLTs), pharmacokinetics (PK), and biomarker parameters were also assessed.
Form A of the hemi-fumarate salt was orally administered BID with food or within 30 minutes of completing a meal, starting at 25 mg, with doses escalating to 50, 100, 200, 400, 600 and 900 mg BID as safety allowed. Up to 24 subjects were enrolled to ensure 12 subjects completed the study at the estimated MTD of Form A of the hemi-fumarate salt. Dosing occurred in 3-week cycles. Subjects spent Cycle 1/Day 1 (C1D1) in the clinic followed by an overnight stay for safety monitoring and PK sampling. Subjects were hospitalized for administration of first 3 doses: CID1 am and pm doses, and Cycle 1/Day 2 (C1D2) am dose; on Days 8, 15, and 21 the am dose was taken in the clinic after the planned PK samples. All other doses were self administered at home.
Results of Cohorts 1 to 6 the study are detailed in Tables 47-50 below.

[1] = 25 mg single oral dose, Cycle 1 Day 1, geometric mean, N = 3
[2] = 25 mg twice daily oral, Cycle 1 Day 21, geometric mean, N = 3
[3] = 50 mg single oral dose, Cycle 1 Day 1, geometric mean, N = 3
[4] = 50 mg twice daily oral, Cycle 1 Day 21, geometric mean, N = 3
[5] = 100 mg single oral dose, Cycle 1 Day 1, geometric mean, N = 4
[6] = 100 mg twice daily oral, Cycle 1 Day 21, geometric mean, N = 3
[7] = 200 mg single oral dose, Cycle 1 Day 1, geometric mean, N = 5
[8] = 200 mg twice daily oral, Cycle 1 Day 21, geometric mean, N = 4
[9] = 300 mg single oral dose, Cycle 1 Day 1, geometric mean, N = 4
[10] = 300 mg twice daily oral, Cycle 1 Day 21, point estimate, N = 1
[11] = 400 mg single oral dose, Cycle 1 Day 1, geometric mean, N = 3
[12] = 400 mg twice daily oral, Cycle 1 Day 21, geometric mean, N = 2
[13] = 600 mg single oral dose, Cycle 1 Day 1, point estimate, N = 1
[14] = 600 mg twice daily oral, Cycle 1 Day 21, point estimate, N = 1

SMILES: Cc1cc(NC(=O)[C@H](O)c2cc(F)cc(F)c2)ccc1-c1cnc(N)c(C(=O)NC(C)C)c1 [Form A of the hemi-fumarate salt, (R)-2-amino-5-(4-(2-(3,5-difluorophenyl)-2-hydroxyacetamido)-2-methylphenyl)-N-isopropylnicotinamide]
- % AUCextrap [1]: 46.8%
- CL/F [1]: 11.4 L/h
- DAUC0-12 [1]: 34.0 ng·h/mL/mg
- DAUC0-last [1]: 34.0 ng·h/mL/mg
- DCmax [1]: 4.79 ng/mL/mg
- tlast (25 mg single oral dose, Cycle 1 Day 1, median, N = 3): 12.00 h
- ARAUC [2]: 4.84
- CL/F [2]: 6.08 L/h
- Ctrough [2]: 359 ng/mL
- DAUC0-last [2]: 164 ng·h/mL/mg
- DAUC0-τ [2]: 164 ng·h/mL/mg
- DCmax [2]: 21.5 ng/mL/mg
- % AUCextrap [3]: 51.8%
- CL/F [3]: 8.85 L/h
- DAUC0-12 [3]: 41.8 ng·h/mL/mg
- DAUC0-last [3]: 41.8 ng·h/mL/mg
- DCmax [3]: 4.87 ng/mL/mg
- tlast (50 mg single oral dose, Cycle 1 Day 1, median, N = 3): 12.00 h
- ARAUC [4]: 4.34
- CL/F [4]: 5.51 L/h
- Ctrough [4]: 780 ng/mL
- DAUC0-last [4]: 181 ng·h/mL/mg
- DAUC0-τ [4]: 181 ng·h/mL/mg
- DCmax [4]: 19.6 ng/mL/mg
- Increase in mean (50 mg vs preceding dose level (25 mg), single oral dose, Cycle 1 Day 1): 2.46
- Increase in mean (50 mg vs preceding dose level (25 mg), twice daily oral, Cycle 1 Day 21): 2.21
- DAUC0-12 [5]: 28.0 ng·h/mL/mg
- DAUC0-last [5]: 19.3 ng·h/mL/mg
- DCmax [5]: 3.80 ng/mL/mg
- tlast (100 mg single oral dose, Cycle 1 Day 1, median, N = 4): 12.00 h
- ARAUC [6]: 4.19
- CL/F [6]: 8.53 L/h
- Ctrough [6]: 777 ng/mL
- DAUC0-last [6]: 117 ng·h/mL/mg
- DAUC0-τ [6]: 117 ng·h/mL/mg
- DCmax [6]: 13.1 ng/mL/mg
- Increase in mean (100 mg vs preceding dose level (50 mg), single oral dose, Cycle 1 Day 1): 1.34
- Increase in mean (100 mg vs preceding dose level (50 mg), twice daily oral, Cycle 1 Day 21): 1.29
- % AUCextrap [7]: 58.7%
- CL/F [7]: 11.1 L/h
- DAUC0-12 [7]: 29.0 ng·h/mL/mg
- DAUC0-last [7]: 29.0 ng·h/mL/mg
- DCmax [7]: 4.19 ng/mL/mg
- tlast (200 mg single oral dose, Cycle 1 Day 1, median, N = 5): 12.00 h
- ARAUC [8]: 4.90
- CL/F [8]: 7.36 L/h
- Ctrough [8]: 1860 ng/mL
- DAUC0-last [8]: 136 ng·h/mL/mg
- DAUC0-τ [8]: 136 ng·h/mL/mg
- DCmax [8]: 14.9 ng/mL/mg
- Increase in mean (200 mg vs preceding dose level (100 mg), single oral dose, Cycle 1 Day 1): 2.07
- Increase in mean (200 mg vs preceding dose level (100 mg), twice daily oral, Cycle 1 Day 21): 2.32
- % AUCextrap [9]: 30.5%
- CL/F [9]: 62.4 L/h
- DAUC0-12 [9]: 28.7 ng·h/mL/mg
- DAUC0-last [9]: 28.7 ng·h/mL/mg
- DCmax [9]: 3.80 ng/mL/mg
- tlast (300 mg single oral dose, Cycle 1 Day 1, median, N = 4): 12.00 h
- ARAUC [10]: 2.87
- CL/F [10]: 10.5 L/h
- Ctrough [10]: 1770 ng/mL
- DAUC0-last [10]: 94.8 ng·h/mL/mg
- DAUC0-τ [10]: 94.8 ng·h/mL/mg
- DCmax [10]: 10.1 ng/mL/mg
- Increase in mean (300 mg vs preceding dose level (200 mg), single oral dose, Cycle 1 Day 1): 1.48
- Increase in mean (300 mg vs preceding dose level (200 mg), twice daily oral, Cycle 1 Day 21): 1.05
- % AUCextrap [11]: 33.6%
- CL/F [11]: 24.5 L/h
- DAUC0-12 [11]: 9.58 ng·h/mL/mg
- DAUC0-last [11]: 9.58 ng·h/mL/mg
- DCmax [11]: 1.62 ng/mL/mg
- tlast (400 mg single oral dose, Cycle 1 Day 1, min-max, N = 3): (12.00-12.00) h
- ARAUC [12]: 5.15
- CL/F [12]: 7.82 L/h
- Ctrough [12]: 3060 ng/mL
- DAUC0-last [12]: 77.0 ng·h/mL/mg
- DAUC0-τ [12]: 128 ng·h/mL/mg
- DCmax [12]: 9.20 ng/mL/mg
- Increase in mean (400 mg vs preceding dose level (300 mg), single oral dose, Cycle 1 Day 1): 0.44
- Increase in mean (400 mg vs preceding dose level (300 mg), twice daily oral, Cycle 1 Day 21): 1.80
- DAUC0-12 [13]: 19.4 ng·h/mL/mg
- DAUC0-last [13]: 19.4 ng·h/mL/mg
- DCmax [13]: 2.43 ng/mL/mg
- tlast [13]: 12.00 h
- ARAUC [14]: 5.22
- CL/F [14]: 9.87 L/h
- Ctrough [14]: 5680 ng/mL
- DAUC0-last [14]: 101 ng·h/mL/mg
- DAUC0-τ [14]: 101 ng·h/mL/mg
- DCmax [14]: 9.98 ng/mL/mg
